The record followed here is article PMC11930087, “Mobility of four structural regions drives isoform-specific properties of photoenzyme LPOR in plants” (The Journal of Biological Chemistry, 2025).

Assay in all cases: biochemical
In one assay the target is T1, HaPOR1 (Helianthus annuus, UniProt A0A251T841).
T1 construct: gene PORA; transit peptide removed; pET15b
T1 sequence (A0A251T841 64-398): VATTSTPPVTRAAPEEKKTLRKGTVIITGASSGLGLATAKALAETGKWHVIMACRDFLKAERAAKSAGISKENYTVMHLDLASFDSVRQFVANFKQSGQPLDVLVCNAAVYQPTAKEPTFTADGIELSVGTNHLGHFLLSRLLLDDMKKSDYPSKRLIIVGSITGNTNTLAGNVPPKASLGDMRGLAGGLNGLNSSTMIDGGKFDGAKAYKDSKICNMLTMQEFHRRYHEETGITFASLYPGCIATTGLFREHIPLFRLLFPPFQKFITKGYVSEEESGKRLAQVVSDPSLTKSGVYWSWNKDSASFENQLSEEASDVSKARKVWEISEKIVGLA
Conditions: 400 uM OPT lipids, 5 uM Pchlide, 15 uM LPOR. On the procedure: (§1) (Figs. 3A, S2). […] The resulting plots resembled saturation curves, to which a hyperbolic function similar to the Michaelis–Menten equation could be fitted (Figs. 3B, S3, Materials and Methods). […] However, KM^L values were consistently lower than KM^D values. […] The addition of 400 μM OPT lipids lowered the KM^D constant for all isoforms, except for SlPOR1, SlPOR3, HaPOR1, HaPOR2, and PeaPOR, where the constant remained unchanged within error estimates. […] Shaded areas represent the SD between replicates. […] A fit of a modified Michaelis–Menten equation is shown, along with the graphical representation of KM^D (B) or KM^L (C). Spectra corresponding to the given F648/F635 values (B) or F Chlide/F Pchlide values (C) are shown on the right side of the plot. D, relationship between KM^D and KM^L for investigated isoforms. The overall distribution of data points is shown in gray. Error bars represent the uncertainty associated with the fitted constant KM^x. Closed symbols represent constants determined for samples not supplemented with lipids, while open symbols these determined in the presence of 400 μM OPT lipids. LPOR, light-dependent protochlorophyllide oxidoreductase; Pchlide, protochlorophyllide; Chlide, chlorophyllide.

For the next assay, the target named is T2, HaPOR2 (Helianthus annuus, UniProt A0A251TWA4).
T2 construct: gene PORA; transit peptide removed; pET15b
T2 sequence (A0A251TWA4 53-387): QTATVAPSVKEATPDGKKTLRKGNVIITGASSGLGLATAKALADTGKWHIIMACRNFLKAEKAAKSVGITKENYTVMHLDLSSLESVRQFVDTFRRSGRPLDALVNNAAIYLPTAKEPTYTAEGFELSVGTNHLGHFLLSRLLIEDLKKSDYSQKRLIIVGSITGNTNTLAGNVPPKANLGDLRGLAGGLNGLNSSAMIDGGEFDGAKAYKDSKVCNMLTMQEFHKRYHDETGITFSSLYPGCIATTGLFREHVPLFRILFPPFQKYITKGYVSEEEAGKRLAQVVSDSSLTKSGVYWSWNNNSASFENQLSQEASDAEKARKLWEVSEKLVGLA
Conditions: 5 uM Pchlide, 15 uM LPOR. On the procedure: as §1

Another assay addresses T3, HaPOR3 (Helianthus annuus, UniProt A0A251UT40).
T3 construct: gene POR; transit peptide removed; pET15b
T3 sequence (A0A251UT40 51-384): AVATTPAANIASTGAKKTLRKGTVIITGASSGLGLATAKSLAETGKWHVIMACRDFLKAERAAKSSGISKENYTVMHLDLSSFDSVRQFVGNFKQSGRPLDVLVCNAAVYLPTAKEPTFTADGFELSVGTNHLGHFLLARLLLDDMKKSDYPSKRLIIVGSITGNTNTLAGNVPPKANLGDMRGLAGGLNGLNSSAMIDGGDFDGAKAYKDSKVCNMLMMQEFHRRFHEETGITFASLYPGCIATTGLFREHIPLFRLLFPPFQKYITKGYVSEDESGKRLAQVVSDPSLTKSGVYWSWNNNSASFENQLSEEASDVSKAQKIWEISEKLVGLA
Conditions: 400 uM OPT lipids, 5 uM Pchlide, 15 uM LPOR. On the procedure:
as §1

The target of the next assay is T4, PeaPOR (Lathyrus oleraceus, UniProt Q01289).
T4 construct: gene 3PCR; transit peptide removed; pET15b
T4 sequence (Q01289 65-399): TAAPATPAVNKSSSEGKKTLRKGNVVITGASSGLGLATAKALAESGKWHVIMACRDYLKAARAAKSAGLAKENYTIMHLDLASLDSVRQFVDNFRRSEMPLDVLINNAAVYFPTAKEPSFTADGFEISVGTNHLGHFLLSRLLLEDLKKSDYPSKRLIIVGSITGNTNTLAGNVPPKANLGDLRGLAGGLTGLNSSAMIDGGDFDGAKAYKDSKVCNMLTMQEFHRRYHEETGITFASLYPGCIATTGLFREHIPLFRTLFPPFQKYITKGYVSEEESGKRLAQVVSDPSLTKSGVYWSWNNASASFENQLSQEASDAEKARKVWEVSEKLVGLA
Conditions: 5 uM Pchlide, 15 uM LPOR. As for the experimental part:
as §1

Another assay concerns the target T5, PinPOR (Pinus mugo, UniProt Q41202).
T5 construct: transit peptide removed; pET15b
T5 sequence (Q41202 67-400): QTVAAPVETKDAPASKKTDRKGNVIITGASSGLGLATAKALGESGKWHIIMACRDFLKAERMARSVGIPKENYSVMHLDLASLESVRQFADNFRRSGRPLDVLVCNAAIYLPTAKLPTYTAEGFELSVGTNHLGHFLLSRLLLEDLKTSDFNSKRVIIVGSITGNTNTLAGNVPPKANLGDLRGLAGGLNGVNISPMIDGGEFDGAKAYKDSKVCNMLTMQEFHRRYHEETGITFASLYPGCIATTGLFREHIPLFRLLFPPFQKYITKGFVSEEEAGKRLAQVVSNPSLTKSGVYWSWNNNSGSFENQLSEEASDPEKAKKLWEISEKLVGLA
Conditions: 5 uM Pchlide, 15 uM LPOR. As for the experimental part:
as §1

The next assay deals with T6, TaPOR1 (Triticum aestivum, UniProt Q41578).
T6 construct: gene PORA
T6 sequence (Q41578 75-388): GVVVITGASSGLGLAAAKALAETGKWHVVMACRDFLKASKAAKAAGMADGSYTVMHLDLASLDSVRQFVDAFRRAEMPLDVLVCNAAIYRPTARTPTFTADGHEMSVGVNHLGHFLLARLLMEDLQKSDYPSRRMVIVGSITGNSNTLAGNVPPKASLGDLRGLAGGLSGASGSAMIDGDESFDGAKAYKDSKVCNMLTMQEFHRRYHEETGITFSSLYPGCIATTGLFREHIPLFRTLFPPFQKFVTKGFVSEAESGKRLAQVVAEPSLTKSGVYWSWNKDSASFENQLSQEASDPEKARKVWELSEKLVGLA
Conditions: 5 uM Pchlide, 15 uM LPOR. As for the experimental part: as §1

For `NC(=O)C1=CN([C@@H]2O[C@H](COP(=O)(O)OP(=O)(O)OC[C@H]3O[C@@H](n4cnc5c(N)ncnc54)[C@H](OP(=O)(O)O)[C@@H]3O)[C@@H](O)[C@H]2O)C=CC1` [NADPH], at HaPOR1, the apparent Michaelis constant KM^D (dark) is 16.9 µM. The compound further gave a Dark Michaelis-like constant (KM^D) at HaPOR2 (400 uM OPT lipids) of 2.2 µM. The apparent Michaelis constant in the dark (KM^D) at HaPOR2 (no lipids) came to 9.4 µM; on PeaPOR (400 uM OPT lipids) it was 4.7 µM. Further, the figures for the apparent Michaelis constant in dark (KM^D) at HaPOR3 and at PinPOR (no lipids) were 3.9 µM and 4.3 µM, respectively. Also, the Michaelis constant in the dark (KM^D) on PeaPOR (no lipids) was determined as 10.8 µM. This compound returned a Michaelis constant, dark (KM^D) at PinPOR (400 uM OPT lipids) of 1.3 µM. In addition, at TaPOR1 (400 uM OPT lipids), the Km (apparent, dark, KM^D) was found to be 45.8 µM. At TaPOR1 (no lipids, dark), the apparent Michaelis constant (KM^D) came to 394 µM.
